The source of these data is patent US12162890B2 (Novartis AG, priority 2015, dated 2024).

The target in the experiment is HEK293 cells with stable expression of the GRIN1 gene and tetracycline-inducible expression of the GRIN2B gene (NMDA receptor, NR2B) (Homo sapiens, UniProt Q13224). Kind of experiment: Fluo-8 Ca2+ flux assay: reversal of Ro 25-6981-mediated suppression of the Ca2+ response to co-agonist (glutamate/glycine). Note: test concentration or dose not given here. The settings on record: reversal of the Ro 25-6981 suppression of the Ca2+ response to co-agonist (glutamate/glycine). Type of experiment: cell-based. On the technique in general: Calcium flux is commonly read through the fluorescence of an indicator in the cells.
Sequence of HEK293 cells with stable expression of the GRIN1 gene and tetracycline-inducible expression of the GRIN2B gene (NMDA receptor, NR2B) (Q13224 27-1484, other chains not shown): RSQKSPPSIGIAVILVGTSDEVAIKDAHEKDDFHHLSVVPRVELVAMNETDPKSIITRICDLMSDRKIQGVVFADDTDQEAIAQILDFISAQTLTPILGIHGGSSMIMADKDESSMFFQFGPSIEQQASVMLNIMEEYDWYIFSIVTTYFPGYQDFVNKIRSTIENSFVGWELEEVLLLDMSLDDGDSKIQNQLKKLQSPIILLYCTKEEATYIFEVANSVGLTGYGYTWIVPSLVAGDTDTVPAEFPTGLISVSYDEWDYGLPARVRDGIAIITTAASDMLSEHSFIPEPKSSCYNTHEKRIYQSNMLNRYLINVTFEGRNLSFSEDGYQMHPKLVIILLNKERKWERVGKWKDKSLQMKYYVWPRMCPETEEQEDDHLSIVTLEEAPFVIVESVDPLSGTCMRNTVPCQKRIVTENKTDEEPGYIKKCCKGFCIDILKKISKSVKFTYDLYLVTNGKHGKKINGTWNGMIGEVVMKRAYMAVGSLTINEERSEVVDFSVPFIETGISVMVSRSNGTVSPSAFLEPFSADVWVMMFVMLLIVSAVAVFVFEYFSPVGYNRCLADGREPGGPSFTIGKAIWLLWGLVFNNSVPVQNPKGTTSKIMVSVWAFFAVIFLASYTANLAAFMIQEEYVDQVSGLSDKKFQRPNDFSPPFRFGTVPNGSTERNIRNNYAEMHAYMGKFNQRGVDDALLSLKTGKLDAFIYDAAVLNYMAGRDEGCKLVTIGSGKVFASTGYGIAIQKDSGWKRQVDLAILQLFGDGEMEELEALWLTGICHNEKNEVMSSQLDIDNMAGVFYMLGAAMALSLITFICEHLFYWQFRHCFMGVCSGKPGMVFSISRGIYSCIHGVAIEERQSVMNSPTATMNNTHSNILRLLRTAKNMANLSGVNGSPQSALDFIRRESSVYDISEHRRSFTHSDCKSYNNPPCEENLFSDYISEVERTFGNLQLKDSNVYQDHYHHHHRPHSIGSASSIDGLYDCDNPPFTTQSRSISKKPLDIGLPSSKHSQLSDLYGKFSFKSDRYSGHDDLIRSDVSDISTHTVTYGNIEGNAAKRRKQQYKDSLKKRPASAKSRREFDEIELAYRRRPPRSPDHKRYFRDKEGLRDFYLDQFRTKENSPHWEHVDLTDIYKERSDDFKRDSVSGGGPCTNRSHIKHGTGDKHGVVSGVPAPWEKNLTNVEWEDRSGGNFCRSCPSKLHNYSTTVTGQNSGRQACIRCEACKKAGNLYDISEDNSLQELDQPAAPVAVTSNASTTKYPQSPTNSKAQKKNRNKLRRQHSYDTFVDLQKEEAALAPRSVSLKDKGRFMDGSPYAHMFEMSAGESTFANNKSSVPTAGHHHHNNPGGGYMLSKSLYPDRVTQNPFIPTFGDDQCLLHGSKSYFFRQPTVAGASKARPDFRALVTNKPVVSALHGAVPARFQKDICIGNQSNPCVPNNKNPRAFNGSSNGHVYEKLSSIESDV
For `O=C(Cn1ccc2scc(-c3ccc(Cl)c(Cl)c3)c2c1=O)N1CC(F)C1` [Example 33, 3-(3,4-dichlorophenyl)-5-(2-(3-fluoroazetidin-1-yl)-2-oxoethyl)thieno[3,2-c]pyridin-4(5H)-one], the “Response Recovered (%)” value is reported as 54%.
The result for `O=C(Cn1ccc2scc(-c3ccc(Cl)c(C(F)(F)F)c3)c2c1=O)N1CC(F)C1` [Example 34, 3-(4-chloro-3-(trifluoromethyl)phen-yl)-5-(2-(3-fluoroazetidin-1-yl)-2-oxoethyl)thieno[3,2-c]pyridin-4(5H)-one] reads 79%.
The result for `O=C(Cn1ccc2scc(-c3cnc(Cl)c(Cl)c3)c2c1=O)N1CC(F)C(F)C1` (centres unmarked) [Example 35, 3-(5,6-dichloropyridin-3-yl)-5-(2-(3,4-difluoropyrrolidin-1-yl)-2-oxoethyl)thieno[3,2-c]pyridin-4(5H)-one] reads 28%; that for `O=C(Cn1ccc2scc(-c3cnc(Cl)c(C(F)(F)F)c3)c2c1=O)N1CC(F)C(F)C1` (centres unmarked) [Example 36, 3-(6-chloro-5-(trifluoromethyl)pyri-din-3-yl)-5-(2-(3,4-difluoropyrrolidin-1-yl)-2-oxoethyl)thieno[3,2-c]pyridin-4(5H)-one], 54%.
Take `O=C(Cn1ccc2scc(-c3cnc(F)c(Cl)c3)c2c1=O)N1CCC(F)C1` (centres unmarked) [Example 37, 3-(5-chloro-6-fluoropyridin-3-yl)-5-(2-(3-fluoropyrrolidin-1-yl)-2-oxoethyl)thieno[3,2-c]pyridin-4(5H)-one]: the “Response Recovered (%)” value was 22%.
The result for `O=C(Cn1ccc2scc(-c3cnc(F)c(Cl)c3)c2c1=O)N1CC(F)C(F)C1` (centres unmarked) [Example 38, 3-(5-chloro-6-fluoropyrridin-3-yl)-5-(2-(3,4-difluoropyrrolidin-1-yl)-2-oxoethyl)thieno[3,2-c]pyridin-4(5H)-one] reads 18%.
With `CC1(F)CN(C(=O)Cn2ccc3scc(-c4ccc(F)c(Cl)c4)c3c2=O)C1` [Example 39, 3-(3-chloro-4-fluorophenyl)-5-(2-(3-fluoro-3-methylazetidin-1-yl)-2-oxoethyl)thieno[3,2-c]pyridin-4(5H)-one] the figure was 140%.
The result for `O=C(Cn1ccc2scc(-c3ccc(F)c(Cl)c3)c2c1=O)N1CC[C@H](F)C1` [Example 40, (S)-3-(3-chloro-4-fluorophenyl)-5-(2-(3-fluoropyrrolidin-1-yl)-2-oxoethyl)thieno[3,2-c]pyridin-4(5H)-one] reads 46%; that for `O=C(Cn1ccc2scc(-c3ccc(F)c(Cl)c3)c2c1=O)N1CC[C@@H](F)C1` [Example 41, (R)-3-(3-chloro-4-fluorophenyl)-5-(2-(3-fluoropyrrolidin-1-yl)-2-oxoethyl)thieno[3,2-c]pyridin-4(5H)-one], 77%; that for `CC1(F)CN(C(=O)Cn2ccc3scc(-c4ccc(Cl)c(Cl)c4)c3c2=O)C1` [Example 42, 3-(3,4-dichlorophenyl)-5-(2-(3-fluoro-3-methylazetidin-1-yl)-2-oxoethyl)thieno[3,2-c]pyridin-4(5H)-one], 150%.
For the molecule `CC1(F)CN(C(=O)Cn2ccc3scc(-c4ccc(F)c(C(F)(F)F)c4)c3c2=O)C1` [Example 43, 3-(4-fluoro-3-(trifluoromethyl)phen-yl)-5-(2-(3-fluoro-3-methylazetidin-1-yl)-2-oxoethyl)thieno[3,2-c]pyridin-4(5H)-one], the “Response Recovered (%)” value was 160%.
The result for `O=C(Cn1ccc2scc(-c3ccc(F)c(Cl)c3)c2c1=O)N1CC(F)(C2CC2)C1` [Example 44, 3-(3-chloro-4-fluorophenyl)-5-(2-(3-cyclopropyl-3-fluoroazetidin-1-yl)-2-oxoethyl)thieno[3,2-c]pyridin-4(5H)-one] reads 63%; that for `O=C(Cn1ccc2scc(-c3ccc(F)c(C(F)(F)F)c3)c2c1=O)N1CC(F)(C2CC2)C1` [Example 45, 5-(2-(3-cyclopropyl-3-fluoroazetidin-1-yl)-2-oxoethyl)-3-(4-fluoro-3-(trifluoromethyl)phen-yl)thieno[3,2-c]pyridin-4(5H)-one], 12%.
As for `O=C(Cn1ccc2scc(-c3ccc(F)c(Cl)c3)c2c1=O)N1CCC1` [Example 46, 5-(2-(azetidin-1-yl)-2-oxoethyl)-3-(3-chloro-4-fluorophenyl)thieno[3,2-c]pyridin-4(5H)-one], the “Response Recovered (%)” value amounted to 26%.
With `O=C(Cn1ccc2scc(-c3ccc(F)c(Cl)c3)c2c1=O)N1CC(F)C1` [Example 47, 3-(3-chloro-4-fluorophenyl)-5-(2-(3-fluoroazetidin-1-yl)-2-oxoethyl)thieno[3,2-c]pyridin-4(5H)-one] the figure was 23%; with `CC1CN(C(=O)Cn2ccc3scc(-c4ccc(F)c(Cl)c4)c3c2=O)C1` [Example 48, 3-(3-chloro-4-fluorophenyl)-5-(2-(3-methylazetidin-1-yl)-2-oxoethyl)thieno[3,2-c]pyridin-4(5H)-one], 67%.
The result for `O=C(Cn1ccc2scc(-c3ccc(Cl)c(Cl)c3)c2c1=O)N1CC(F)(C2CC2)C1` [Example 49, 5-(2-(3-cyclopropyl-3-fluoroazetidin-1-yl)-2-oxoethyl)-3-(3,4-dichlorophenyl)thien-o[3,2-c]pyridin-4(5H)-one] reads 26%.
Regarding `CCC1(F)CN(C(=O)Cn2ccc3scc(-c4ccc(Cl)c(Cl)c4)c3c2=O)C1` [Example 50, 3-(3,4-dichlorophenyl)-5-(2-(3-ethyl-3-fluoroazetidin-1-yl)-2-oxoethyl)thieno[3,2-c]pyridin-4(5H)-one], the “Response Recovered (%)” value is reported as 96%.
The result for `CCC1(F)CN(C(=O)Cn2ccc3scc(-c4ccc(F)c(C(F)(F)F)c4)c3c2=O)C1` [Example 51, 5-(2-(3-ethyl-3-fluoroazetidin-1-yl)-2-oxoethyl)-3-(4-fluoro-3-(trifluoromethyl)phen-yl)thieno[3,2-c]pyridin-4(5H)-one] reads 57%; that for `CCC1(F)CN(C(=O)Cn2ccc3scc(-c4ccc(F)c(Cl)c4)c3c2=O)C1` [Example 52, 3-(3-chloro-4-fluorophenyl)-5-(2-(3-ethyl-3-fluoroazetidin-1-yl)-2-oxoethyl)thieno[3,2-c]pyridin-4(5H)-one], 130%.
With `O=C(Cn1ccc2scc(-c3ccc(Cl)c(Cl)c3)c2c1=O)N1CC(F)(c2ccccc2)C1` [Example 53, 3-(3,4-dichlorophenyl)-5-(2-(3-fluoro-3-phenylazetidin-1-yl)-2-oxoethyl)thieno[3,2-c]pyridin-4(5H)-one] the figure was 24%; with `O=C(Cn1ccc2scc(-c3ccc(F)c(C(F)(F)F)c3)c2c1=O)N1CC(F)(c2ccccc2)C1` [Example 54, 3-(4-fluoro-3-(trifluoromethyl)phen-yl)-5-(2-(3-fluoro-3-phenylazetidin-1-yl)-2-oxoethyl)thieno[3,2-c]pyridin-4(5H)-one], 17%.
With `CC1(O)CN(C(=O)Cn2ccc3scc(-c4ccc(F)c(C(F)(F)F)c4)c3c2=O)C1` [Example 55, 3-(4-fluoro-3-(trifluoromethyl)phen-yl)-5-(2-(3-hydroxy-3-methylazetidin-1-yl)-2-oxoethyl)thieno[3,2-c]pyridin-4(5H)-one], the “Response Recovered (%)” value turned out to be 14%.
For the molecule `O=C(Cn1ccc2scc(-c3ccc(F)c(Cl)c3)c2c1=O)NCC(F)(F)F` [Example 56, 2-(3-(3-chloro-4-fluorophenyl)-4-oxothieno[3,2-c]pyridin-5(4H)-yl)-N-(2,2,2-trifluoroethyl)aceta-mide], the “Response Recovered (%)” value is reported as 7.3%.
On to `O=C(Cn1ccc2scc(-c3ccc(F)c(Cl)c3)c2c1=O)N1CC(F)(c2ccccc2)C1` [Example 57, 3-(3-chloro-4-fluorophenyl)-5-(2-(3-fluoro-3-phenylazetidin-1-yl)-2-oxoethyl)thieno[3,2-c]pyridin-4(5H)-one], for which the “Response Recovered (%)” value came to 15%.
As for `CC1(O)CN(C(=O)Cn2ccc3scc(-c4ccc(F)c(Cl)c4)c3c2=O)C1` [Example 58, 3-(3-chloro-4-fluorophenyl)-5-(2-(3-hydroxy-3-methylazetidin-1-yl)-2-oxoethyl)thieno[3,2-c]pyridin-4(5H)-one], the “Response Recovered (%)” value is 10%.
The result for `CC1CN(C(=O)Cn2ccc3scc(-c4ccc(Cl)c(Cl)c4)c3c2=O)C1` [Example 59, 3-(3,4-dichlorophenyl)-5-(2-(3-methylazetidin-1-yl)-2-oxoethyl)thieno[3,2-c]pyridin-4(5H)-one] reads 110%; that for `CC1CN(C(=O)Cn2ccc3scc(-c4ccc(F)c(C(F)(F)F)c4)c3c2=O)C1` [Example 60, 3-(4-fluoro-3-(trifluoromethyl)phen-yl)-5-(2-(3-methylazetidin-1-yl)-2-oxoethyl)thieno[3,2-c]pyridin-4(5H)-one], 76%; that for `CC1(O)CN(C(=O)Cn2ccc3scc(-c4ccc(Cl)c(Cl)c4)c3c2=O)C1` [Example 61, 3-(3,4-dichlorophenyl)-5-(2-(3-hydroxy-3-methylazetidin-1-yl)-2-oxoethyl)thieno[3,2-c]pyridin-4(5H)-one], 16%.
For the molecule `COC1(C)CN(C(=O)Cn2ccc3scc(-c4ccc(F)c(Cl)c4)c3c2=O)C1` [Example 62, 3-(3-chloro-4-fluorophenyl)-5-(2-(3-methoxy-3-methylazetidin-1-yl)-2-oxoethyl)thieno[3,2-c]pyridin-4(5H)-one], the “Response Recovered (%)” value is 11%.
The result for `COC1(C)CN(C(=O)Cn2ccc3scc(-c4ccc(Cl)c(Cl)c4)c3c2=O)C1` [Example 63, 3-(3,4-dichlorophenyl)-5-(2-(3-methoxy-3-methylazetidin-1-yl)-2-oxoethyl)thieno[3,2-c]pyridin-4(5H)-one] reads 16%; that for `COC1(C)CN(C(=O)Cn2ccc3scc(-c4ccc(F)c(C(F)(F)F)c4)c3c2=O)C1` [Example 64, 3-(4-fluoro-3-(trifluoromethyl)phen-yl)-5-(2-(3-methoxy-3-methylazetidin-1-yl)-2-oxoethyl)thieno[3,2-c]pyridin-4(5H)-one], 22%.
